Data published in patent publication US11752161B2, “Pharmaceutical compositions, method of making and method of using thereof” (Gannex Pharma Co., Ltd., priority 2020, dated 2023).

Assay: Solubility of the compound of Formula (I) in aqueous media without surfactant
Format: physicochemical
Details: aqueous buffer; hydrochloric acid solution, buffer, and water without surfactant, 37° C., pH 1.0˜9.0
Method: The very low solubility limits its use in the development as a drug candidate. Chinese patent application 202010105909.9 reports a semi-solid capsule technology that can substantially increase the dissolution of the compound shown in Formula (I), but the capsule needs to be stored in a cool place below room temperature, not exceeding 15° C., specifically in a closed container at 2 to 8° C.

solubility: < 0.5 ng/mL
SMILES: Cc1cc(OC[P@@]2(=O)OCC[C@@H](c3cccc(Cl)c3)O2)cc(C)c1Cc1ccc(O)c(C(C)C)c1 [Formula (I) compound]
